# Experimental data published in patent US11013740B2, “Histone deacetylase 6 selective inhibitors for the treatment of cisplatin-induced peripheral neuropathy” (REGENACY PHARMACEUTICALS, LLC, priority 2015, dated 2021).
# How the values were obtained:
# [1] = test system: general activity; test: Locomotor activity (LMA) test; format: in vivo, mice; conditions: in combination with cisplatin
# Method: (§1) To quantify signs of cisplatin-induced pain, the von Frey test was used (see below) which measures the decrease in threshold to induce a withdrawal response to a mechanical stimulus (hyperalgesia, one of the characteristics of CIPN). To assess cisplatin-induced numbness, the adhesive removal test (ART) was used. The time it took for the mouse to have a behavioral response to the patch (i.e. shaking or attempted removal) was recorded as a measure of sensory deficit or numbness. To determine if behavioral changes were due to altered general activity or motor function, the locomotor activity (LMA) test and the rotarod test was used. For LMA mice were placed in an open-field testing cage and movement was measured for 5 minutes. For the rotarod, mice were trained for two days and then tested on the rotarod (with increasing speeds) for 5 minutes. Time on the rotarod was recorded.
# [2] = test system: motor function; test: Rotarod test; format: in vivo, mice; conditions: in combination with cisplatin
# Method: as §1
# [3] = test system: rat DRG neurons; test: Mitochondrial movement in cultured DRG neurons; format: cell-based; conditions: 100 nM co-administered with cisplatin, 3 hours
# Method: DRG neurons (Lonza) were cultured for 5-7 days before the mitochondrial transport assay. 24 hrs prior to chemotherapy treatment cells were infected with Bacmam 2.0, which labeled mitochondria with GFP. Cells were treated with cisplatin (20-80 μM)+/−compound 001 (100 nM) for 3 hours. Imaging was performed using Zeiss 3i system. Time lapse images were acquired every 2 seconds over the course of 2 min. Image analysis was performed using Fiji and Multiple Kymograph plugin.
# [4] = test system: mitochondrial respiration in tibial nerves; test: Mitochondrial bioenergetics analysis of tibial nerves (XF24); format: in vivo, mice
# Method: Tibial nerves were collected on experimental day 30, when the mice have received 2 rounds of cisplatin treatment and 11 injections of compound 001. Tissues were placed into islet capture XF24 microplate (Seahorse Bioscience, North Billerica, Mass.) in XF media with the addition of 5.5 mM glucose, 0.5 mM sodium pyruvate and 1 mM glutamine. Oligomycin (12 μM), FCCP (Carbonyl cyanide 4-(trifluoromethoxy)phenylhydrazone, 20 μM), and Rotenone/Antimycin A (20 μM each) (Sigma-Aldrich, St. Louis, Mo.) were injected sequentially during the assay. An assay cycle with a combination of 3-min mix, 3-min wait, and 4-min measure was repeated 4 times for baseline rates and after each port injection. After the respiratory measures, tissues were harvested and the oxygen consumption rate (OCR) values were normalized to the total protein content of each well. Basal respiration, ATP-linked respiration, proton leak, and maximal respiratory capacity were determined as described previously (Brand M D, and Nicholls D G. Assessing mitochondrial dysfunction in cells. The Biochemical journal. 2011; 435(2):297-312; Ma J, et al. Heat shock protein 70 is necessary to improve mitochondrial bioenergetics and reverse diabetic sensory neuropathy following KU-32 therapy. The Journal of pharmacology and experimental therapeutics. 2014; 348(2):281-92). Briefly, the initial measurements provide a measure of the basal OCR in the absence of respiratory chain poisons. The amount of basal OCR that is coupled to ATP production was determined by addition of the ATP synthase inhibitor oligomycin, which decreased the basal OCR. […] Next, maximal respiratory capacity (MRC) was assessed by addition of the protonophore FCCP, which dissipates the mitochondrial membrane potential and promotes maximal OCR. Lastly, non-mitochondrial respiration was determined by the addition of rotenone and antimycin A, which inhibit the activities of mitochondrial respiratory chain complex I and complex III respectively.
# [5] = test system: cisplatin-induced spontaneous pain; test: Conditioned place preference test for spontaneous pain; format: in vivo, mice; conditions: cisplatin followed by two weeks of daily compound
# Method: Spontaneous pain was tested using a conditioning paradigm with retigabine as the conditioned stimulus that was originally described in a rat model (Yang Q, et al. Persistent pain after spinal cord injury is maintained by primary afferent activity. The Journal of Neuroscience. 2014; 34(32):10765-9; Ahmed B, et al. Recent changes in practice of elective percutaneous coronary intervention for stable angina. Circ. Cardiovasc. Qual. Outcomes. 2011; 4(3):300-5.). Retigabine is a […] with a rapid onset of action but only brief duration (45-60 min). […] Mol. Pain. 2010; 6(49); Passmore G M, et al. KCNQ/M currents in sensory neurons: significance for pain therapy. The Journal of Neuroscience, 2003; 23(18):7227-36). Briefly, during pre-conditioning, mice were allowed to freely explore for 15 min the CPP apparatus. The CPP apparatus consisted of 2 chambers (18×20 cm, one dark, one white) connected by a 15 cm hallway (Stoelting, Wood Dale, Ill.). The time spent in the light chamber was recorded. During the conditioning phase, saline was injected intraperitoneally in the morning and the mice were then kept in the dark chamber for 20 min. Three hours later, the analgesic retigabine (#R-100, Alomone laboratory, Jerusalem, Israel) […] the mice were immediately placed in the light chamber for 20 min. Conditioning was repeated for four consecutive days. […]
# [6] = test system: IENF density; test: Intra-epidermal nerve fiber (IENF) density in hind paw biopsies; format: in vivo, mice
# Description: For quantification of IENFs, biopsies from the plantar surface of the hind paws were collected after 3 doses or 11 doses of compound 001 or vehicle and processed as described previously (Qi-Liang Mao-Ying A K, et al. The anti-diabetic drug metformin protects against chemotherapy-induced peripheral neuropathy in a mouse model. Clinical Cancer Research. 2014); Krukowski K, et al. Prevention of chemotherapy-induced peripheral neuropathy by the small-molecule inhibitor pifithrin-mu. Pain. 2015; 156(11):2184-92). In brief, biopsies were fixed in Zamboni's fixative, cryoprotected in 20% sucrose and then frozen in Optimal Cutting Temperature compound (Sakura Finetek USA, Inc., Torrance, Calif.). 25-μm frozen sections were incubated with antibodies against the pan neuronal marker PGP9.5 (Rabbit; AbD Serotec, Oxford, United Kingdom) and Collagen IV (Goat; Southern Biotech, Birmingham, Ala.) followed by Alexa-594 donkey anti-rabbit (Life Technologies, Carlsbad, Calif.) and Alexa-488 donkey anti-goat (Invitrogen, Grand Island, N.Y.). Three randomly chosen sections from each mouse were imaged and quantified under a Leica SPE confocal microscope (Leica Microsystems, Buffalo Grove, Ill.). Nerve fibers that crossed the collagen-stained dermal/epidermal junction into the epidermis were counted and IENF density was determined as the total number of fibers/length of epidermis (IENFs/mm).
# [7] = 2 rounds of cisplatin and 11 injections of compound
smiles,measurement,setting,value
O=C(NO)c1cnc(NC2(c3ccccc3)CCC(F)(F)CC2)nc1 [compound 001],general activity (locomotor activity),[1],no effect on general activity
same,motor function (rotarod),[2],no effect
same,percentage of moving mitochondria in axons (mitochondrial transport),[3],prevented this cisplatin-induced decrease in mitochondrial transport
same,"mitochondrial respiration (basal, ATP-linked, proton leak, maximal) in tibial nerves",[4]; [7],normalized all aspects of the cisplatin-induced decrease in mitochondrial respiration
same,non-mitochondrial respiration in tibial nerves,[4]; [7],not altered
same,"mitochondrial bioenergetics, compound alone",[4]; without cisplatin,did not have any effect on mitochondrial bioenergetics
same,change in time spent in retigabine-paired light chamber (spontaneous pain),[5],did not develop a preference for the retigabine-paired light chamber
same,"IENF density, prolonged regimen",[6]; 2 cycles of cisplatin and 11 doses of compound,completely reversed the cisplatin-induced loss of IENFs
same,"IENF density, short-term treatment","[6]; cisplatin-treated mice, short-term treatment (3 doses)",did not have any effect on IENF density
